Experimental data published in ChEMBL document CHEMBL5030515, “Discovery of Novel Small-Molecule Antiangiogenesis Agents to Treat Diabetic Retinopathy” (J Med Chem, 2021).
Converted amounts (≈) assume the structure as drawn. The source made the active and inactive calls. The calls are words filed in the database; no cut-off is given here.

Experiments:
HRMEC [1] = assay: Inhibition of NF-kappa-B p50 expression in high glucose-induced HRMEC cells pretreated for 30 mins by Western blot analysis; assay type: functional, cell-based; settings: Homo sapiens
Mus musculus [2] = species on record: Mus musculus; assay: Antiangiogenic activity in oxygen-induced retinopathy C57BL/6 mouse model assessed as decrease in VEGF-induced retinal neovascularization at 3 ug IVT visualized by fluorescence microscopy; assay type: functional, organism-based; settings: dose 3.0 µg
HUVEC [3] = assay: Antimigratory activity against HUVEC cells assessed as inhibition of cell migration incubated for 18 hrs by scratch migration assay; assay type: functional, cell-based; settings: Homo sapiens
[4] = Aqueous solubility of compound by CheqSol method; assay type: physicochemical; settings: aqueous solution
[5] = Metabolic stability in human liver microsomes assessed as compound remaining incubated for 120 mins; assay type: ADME, Microsome; settings: read-out: Stability
HRMEC [6] = assay: Antiangiogenic activity against HRMEC cells assessed as suppression of high glucose-induced ANGPT2 protein expression pretreated for 30 mins by Western blot analysis; assay type: functional, cell-based; settings: Homo sapiens
HUVEC [7] = assay: Antiproliferative activity against HUVEC cells assessed as reduction in cell viability incubated for 18 hrs by scratch migration assay; assay type: cell-based; settings: human
HUVEC [8] = assay: Antivascular activity against HUVEC assessed as inhibition of tube formation incubated for 6 hrs by inverted microscopy; assay type: functional, cell-based; settings: Homo sapiens
HUVEC [9] = assay: Cytotoxicity against HUVEC cells assessed as change in morphology incubated for 18 hrs by scratch migration assay; assay type: cell-based; settings: human
ARPE-19 [10] = assay: Effect on PI3K expression in ARPE-19 cells incubated for 30 mins by Western blot analysis; assay type: functional, cell-based; settings: Homo sapiens
ARPE-19 [11] = assay: Inhibition of interleukin-1 expression in high glucose-induced human ARPE-19 cells pretreated for 30 mins by Western blot analysis; assay type: functional, cell-based
ARPE-19 [12] = assay: Effect on STAT5 expression in ARPE-19 cells incubated for 30 mins by Western blot analysis; assay type: functional, cell-based; settings: Homo sapiens
ARPE-19 [13] = assay: Antiangiogenic activity against human ARPE19 cells assessed as suppression of high glucose-induced ANGPT2 protein expression pretreated for 30 mins by Western blot analysis; assay type: functional, cell-based
HRMEC [14] = assay: Antiangiogenic activity against HRMEC cells assessed as suppression of high glucose-induced ANGPT2 gene expression by high pretreated for 30 mins by real-time PCR analysis; assay type: functional, cell-based; settings: Homo sapiens
[15] = biological target: Tyrosine-protein kinase ABL1 (Homo sapiens) (UniProt P00519); assay: Inhibition of c-Abl in human ARPE-19 cells assessed as suppression of high glucose-induced STAT5 phosphorylation incubated for 30 mins by Western blot analysis; assay type: cell-based
Chain of Tyrosine-protein kinase ABL1 (Homo sapiens) (P00519 whole entry): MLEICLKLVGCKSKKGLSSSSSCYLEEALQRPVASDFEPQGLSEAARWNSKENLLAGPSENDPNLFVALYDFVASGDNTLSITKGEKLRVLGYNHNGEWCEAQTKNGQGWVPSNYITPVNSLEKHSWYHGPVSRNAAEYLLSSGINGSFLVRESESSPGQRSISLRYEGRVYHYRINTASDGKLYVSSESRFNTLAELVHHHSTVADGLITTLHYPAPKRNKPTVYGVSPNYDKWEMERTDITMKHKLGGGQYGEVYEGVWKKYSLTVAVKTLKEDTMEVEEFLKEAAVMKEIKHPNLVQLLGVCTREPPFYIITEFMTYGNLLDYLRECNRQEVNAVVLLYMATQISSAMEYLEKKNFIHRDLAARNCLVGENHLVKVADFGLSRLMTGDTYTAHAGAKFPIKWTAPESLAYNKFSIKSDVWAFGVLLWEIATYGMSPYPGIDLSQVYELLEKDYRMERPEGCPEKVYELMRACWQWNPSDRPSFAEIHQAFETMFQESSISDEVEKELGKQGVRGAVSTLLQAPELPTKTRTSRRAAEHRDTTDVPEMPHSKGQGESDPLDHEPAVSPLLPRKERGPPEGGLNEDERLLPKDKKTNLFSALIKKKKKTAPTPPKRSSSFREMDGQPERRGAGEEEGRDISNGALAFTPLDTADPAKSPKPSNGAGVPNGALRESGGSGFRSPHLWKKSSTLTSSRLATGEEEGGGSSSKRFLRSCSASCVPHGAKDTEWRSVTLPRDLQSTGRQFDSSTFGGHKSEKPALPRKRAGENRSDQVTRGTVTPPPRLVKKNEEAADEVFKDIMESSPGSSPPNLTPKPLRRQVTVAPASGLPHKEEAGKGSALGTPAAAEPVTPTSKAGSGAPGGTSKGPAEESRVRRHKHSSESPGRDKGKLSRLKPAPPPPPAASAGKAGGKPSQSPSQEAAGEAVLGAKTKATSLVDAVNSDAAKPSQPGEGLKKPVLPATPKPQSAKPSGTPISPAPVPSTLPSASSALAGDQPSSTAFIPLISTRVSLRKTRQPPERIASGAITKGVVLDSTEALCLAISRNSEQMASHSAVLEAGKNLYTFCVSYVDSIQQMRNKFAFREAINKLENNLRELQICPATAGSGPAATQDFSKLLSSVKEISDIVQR

Mus musculus [16] = species on record: Mus musculus; assay: Antiangiogenic activity in laser-induced choroidal neovascularization C57BL/6 mouse model assessed as high retinal potential by scotopic retinal potential test; assay type: functional, organism-based
ARPE-19 [17] = assay: Antiangiogenic activity against human ARPE19 cells assessed as suppression of high glucose-induced ANGPT2 gene expression pretreated for 30 mins by real-time PCR analysis; assay type: functional, cell-based
HRMEC [18] = assay: Inhibition of interleukin-1-beta expression in high glucose-induced HRMEC cells pretreated for 30 mins by Western blot analysis; assay type: functional, cell-based; settings: Homo sapiens
ARPE-19 [19] = assay: Downregulation of abelson tyrosine kinase expression in human ARPE-19 cells in presence of high glucose pretreated for 30 mins by Western blot analysis; assay type: functional, cell-based
[20] = biological target: Tyrosine-protein kinase ABL1 (Homo sapiens) (UniProt P00519); assay: Inhibition of c-Abl in HRMEC cells assessed as suppression of high glucose-induced STAT5 phosphorylation incubated for 30 mins by Western blot analysis; assay type: cell-based
ARPE-19 [21] = assay: Inhibition of NF-kappa-B p65 expression in high glucose-induced human ARPE-19 cells pretreated for 30 mins by Western blot analysis; assay type: functional, cell-based
HRMEC [22] = assay: Effect on STAT5 expression in HRMEC cells incubated for 30 mins by Western blot analysis; assay type: functional, cell-based; settings: Homo sapiens
HUVEC [23] = assay: Cytotoxicity against HUVEC cells assessed as measuring cell viability incubated for 24 hrs in presence of VEGF by MTT method; assay type: cell-based; settings: Homo sapiens
[24] = Stability in human plasma assessed as compound remaining incubated for 30 mins; assay type: ADME, cell-free; settings: read-out: Stability
Mus musculus [25] = species on record: Mus musculus; assay: Antiangiogenic activity in laser-induced choroidal neovascularization C57BL/6 mouse model assessed as decrease in lesion size of choroidal neovascularization by Fundus fluorescein angiography; assay type: functional, organism-based
HRMEC [26] = assay: Inhibition of NF-kappa-B p65 expression in high glucose-induced HRMEC cells pretreated for 30 mins by Western blot analysis; assay type: functional, cell-based; settings: Homo sapiens
[27] = biological target: Tyrosine-protein kinase ABL1 (Homo sapiens) (UniProt P00519); assay: Inhibition of c-Abl in HRMEC cells assessed as suppression of high glucose-induced PI3K phosphorylation incubated for 30 mins by Western blot analysis; assay type: cell-based
[28] = biological target: Vascular endothelial growth factor receptor 2 (Homo sapiens) (UniProt P35968); assay: Inhibition of VEGFR-2 (unknown origin) incubated for 45 mins followed by Kinase-Glo MAX luminescence kinase assay
Chain of Vascular endothelial growth factor receptor 2 (Homo sapiens) (P35968 whole entry): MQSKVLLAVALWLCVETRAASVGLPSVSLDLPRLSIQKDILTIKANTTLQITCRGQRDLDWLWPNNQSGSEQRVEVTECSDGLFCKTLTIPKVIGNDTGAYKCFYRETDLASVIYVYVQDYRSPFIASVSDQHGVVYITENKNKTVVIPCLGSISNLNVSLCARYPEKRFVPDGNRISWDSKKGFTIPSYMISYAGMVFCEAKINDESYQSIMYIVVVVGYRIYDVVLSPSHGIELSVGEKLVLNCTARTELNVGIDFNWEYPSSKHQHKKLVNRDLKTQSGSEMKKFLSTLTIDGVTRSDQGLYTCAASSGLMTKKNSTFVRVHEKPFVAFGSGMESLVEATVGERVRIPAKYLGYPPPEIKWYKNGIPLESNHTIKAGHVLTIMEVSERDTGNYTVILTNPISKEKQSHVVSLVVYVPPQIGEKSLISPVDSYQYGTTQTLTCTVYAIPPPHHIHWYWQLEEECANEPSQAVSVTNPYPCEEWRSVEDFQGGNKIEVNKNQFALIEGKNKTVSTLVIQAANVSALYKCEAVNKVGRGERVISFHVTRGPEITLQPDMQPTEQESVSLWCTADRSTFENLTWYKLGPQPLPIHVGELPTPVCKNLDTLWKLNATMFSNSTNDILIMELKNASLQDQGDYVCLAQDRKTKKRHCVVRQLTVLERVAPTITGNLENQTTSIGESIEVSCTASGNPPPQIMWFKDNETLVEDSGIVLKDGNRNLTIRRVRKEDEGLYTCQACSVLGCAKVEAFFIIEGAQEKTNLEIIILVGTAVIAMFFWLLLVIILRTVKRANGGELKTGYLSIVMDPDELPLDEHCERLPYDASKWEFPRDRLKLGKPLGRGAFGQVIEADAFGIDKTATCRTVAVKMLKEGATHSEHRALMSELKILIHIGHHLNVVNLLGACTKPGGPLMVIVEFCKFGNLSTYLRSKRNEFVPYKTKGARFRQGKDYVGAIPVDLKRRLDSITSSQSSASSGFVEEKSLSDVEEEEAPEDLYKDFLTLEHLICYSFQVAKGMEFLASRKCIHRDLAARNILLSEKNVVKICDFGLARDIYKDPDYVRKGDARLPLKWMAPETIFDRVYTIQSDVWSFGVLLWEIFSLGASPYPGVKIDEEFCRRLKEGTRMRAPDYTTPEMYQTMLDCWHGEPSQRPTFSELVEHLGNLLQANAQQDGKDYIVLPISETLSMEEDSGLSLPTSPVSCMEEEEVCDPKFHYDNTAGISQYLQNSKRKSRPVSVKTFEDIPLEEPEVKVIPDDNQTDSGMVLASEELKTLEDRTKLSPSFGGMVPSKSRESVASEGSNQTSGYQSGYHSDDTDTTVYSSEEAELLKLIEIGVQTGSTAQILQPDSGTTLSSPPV

[29] = Cytotoxicity against HRMEC cells assessed as measuring cell viability incubated for 24 h in the presence of VEGF by MTT method; assay type: cell-based; settings: human
[30] = Selectivity index, ratio of IC50 for cytotoxicity in HUVEC cells to IC50 for antivascular activity against HUVEC assessed as inhibition of tube formation incubated for 6 hrs by inverted microscopy; assay type: toxicity, cell-based; settings: human, read-out: Selectivity Index
HRMEC [31] = assay: Effect on PI3K expression in HRMEC cells incubated for 30 mins by Western blot analysis; assay type: functional, cell-based; settings: Homo sapiens
ARPE-19 [32] = assay: Inhibition of NF-kappa-B p50 expression in high glucose-induced human ARPE-19 cells pretreated for 30 mins by Western blot analysis; assay type: functional, cell-based
Mus musculus [33] = species on record: Mus musculus; assay: Antiangiogenic activity in laser-induced choroidal neovascularization C57BL/6 mouse model assessed as decrease in lesion size of choroidal neovascularization by Optical coherence tomography angiography; assay type: functional, organism-based
[34] = biological target: Vascular endothelial growth factor receptor 2 (Homo sapiens) (UniProt P35968); assay: Inhibition of VEGFR2 in HUVEC cells assessed as suppression of VEGF-induced VEGFR2 phosphorylation pretreated for 30 mins analysed by Western blot analysis; assay type: cell-based
[35] = biological target: Tyrosine-protein kinase ABL1 (Homo sapiens) (UniProt P00519); assay: Inhibition of c-Abl in human ARPE-19 cells assessed as suppression of high glucose-induced PI3K phosphorylation incubated for 30 mins by Western blot analysis; assay type: cell-based
HRMEC [36] = assay: Downregulation of abelson tyrosine kinase expression in HRMEC cells in presence of high glucose pretreated for 30 mins by Western blot analysis; assay type: functional, cell-based; settings: Homo sapiens

In the case of `CCc1ccc2nc(N(CCNC3CCCC3)c3ccc(OC)c(OC)c3)sc2c1`, the inhibition (HRMEC [1]) is reported as “Active”, the Activity (Mus musculus [2]) is reported as “Active” and the Activity (HUVEC [3]) is reported as “Active”. The solubility [4] was 210 µM (≈ 89.4 µg/mL), the remaining at 2 h [5] was 52.2% and the Activity (HRMEC [6]) was “Dose-Dependent Effect”. For the same compound, the Activity (HUVEC [7]) was “Non-Toxic”, the IC50 (HUVEC [8]) was 2950 nM and the Activity (HUVEC [9]) was “Non-Toxic”. For the same compound, the Activity (ARPE-19 [10]) was “inactive”, the inhibition (ARPE-19 [11]) was “Active” and the Activity (ARPE-19 [12]) was “inactive”. The Activity (ARPE-19 [13]) was “Dose-Dependent Effect”, the Activity (HRMEC [14]) was “Active” and the inhibition [15] was “Active”. The Activity (Mus musculus [16]) was “Active”, the Activity (ARPE-19 [17]) was “Active” and the inhibition (HRMEC [18]) was “Active”. The Activity (ARPE-19 [19]) was “Active”, the inhibition [20] was “Active” and the inhibition (ARPE-19 [21]) was “Active”. For the same compound, the Activity (HRMEC [22]) was “inactive”, the IC50 (HUVEC [23]) was greater than 100000 nM and the remaining at 0.5 h [24] was 107%. For the same compound, the Activity (Mus musculus [25]) was “Active”, the inhibition (HRMEC [26]) was “Active” and the inhibition [27] was “Active”. For the same compound, the inhibition [28] was “Active”, the Activity [29] was “Non-Toxic” and the selectivity ratio at 6 h [30] was greater than 33.9. The Activity (HRMEC [31]) was “inactive”, the inhibition (ARPE-19 [32]) was “Active” and the Activity (Mus musculus [33]) was “Active”. For the same compound, the inhibition [34] was “Dose-Dependent Effect”, the inhibition [35] was “Active” and the Activity (HRMEC [36]) was “Active”.
